Measurements: article PMC7177833, “2-Aminopyridine Analogs Inhibit Both Enzymes of the Glyoxylate Shunt in Pseudomonas aeruginosa” (International Journal of Molecular Sciences, 2020)
Values joined by “and” are separate entries in the source; they are usually repeats but may differ in a detail not shown here. Identical values can stand only once.

Legend:
[1] = molecular target: T1, MSPa (malate synthase G from P. aeruginosa) (Pseudomonas aeruginosa, UniProt Q9I636); experiment: Inhibition of purified MSPa enzymatic activity; type: biochemical; conditions: for inhibition at 75 µM: read-out: Enzyme Inhibition (%) at 75 µM MSPa
T1 construct: made in house
T1 sequence (Q9I636 whole entry): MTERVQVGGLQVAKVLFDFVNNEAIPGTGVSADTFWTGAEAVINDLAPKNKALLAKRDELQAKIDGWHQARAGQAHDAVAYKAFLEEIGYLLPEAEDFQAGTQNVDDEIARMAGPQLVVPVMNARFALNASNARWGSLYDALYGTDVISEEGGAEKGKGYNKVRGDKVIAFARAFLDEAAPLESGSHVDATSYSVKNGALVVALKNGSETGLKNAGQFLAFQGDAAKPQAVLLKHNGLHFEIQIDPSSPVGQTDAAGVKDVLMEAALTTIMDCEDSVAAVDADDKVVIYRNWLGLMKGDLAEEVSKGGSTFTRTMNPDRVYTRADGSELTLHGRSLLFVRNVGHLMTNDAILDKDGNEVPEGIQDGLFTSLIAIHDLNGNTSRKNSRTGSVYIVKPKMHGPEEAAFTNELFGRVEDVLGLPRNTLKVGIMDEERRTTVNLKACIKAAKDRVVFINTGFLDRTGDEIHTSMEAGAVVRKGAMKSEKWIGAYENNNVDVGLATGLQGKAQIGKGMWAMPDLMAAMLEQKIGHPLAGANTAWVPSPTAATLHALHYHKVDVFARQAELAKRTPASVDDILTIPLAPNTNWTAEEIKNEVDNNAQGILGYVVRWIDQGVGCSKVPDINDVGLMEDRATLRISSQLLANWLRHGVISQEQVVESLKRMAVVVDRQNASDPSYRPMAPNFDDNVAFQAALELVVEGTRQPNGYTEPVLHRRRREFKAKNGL
Description: (§1) The enzymatic activity of purified ICLPa and MSPa was assayed essentially as previously described. Compounds were added to the reaction mixtures (minus substrates) and incubated for 5 min at 37 °C. The enzyme concentration in the reaction mixtures was 170 nM for ICL and 25 nM for MS (based on the concentration of the monomer in each case). […] The reactions were initiated by the addition of pH-adjusted substrates, and the initial rates were recorded as A324 nm (for ICLPa) and A412 nm (for MSPa) using a Biospectrometer (Eppendorf, Stevenage, UK). Substrate turnover was calculated from the molar extinction coefficient of the assay products: Glyoxylate-phenylhydrazone (16,800/M/cm) for ICLPa and 2-nitro-5-thiobenzoic acid (14,150/M/cm) for MSPa.
(§2) All data fitting was performed with GraphPad Prism version 7.04 (GraphPad Software, Inc., La Jolla, CA, USA). The solid lines are the result of fitting the data to the equations denoted in relevant experimental sections. IC50 values were determined by a nonlinear fit using the equation for sigmoidal dose-response with variable slope. In all graphs, unless otherwise stated, the data points are the mean of experimental triplicates, and all error bars correspond to ± standard deviation.

[2] = molecular target: T2, ICLPa (isocitrate lyase from P. aeruginosa) (Pseudomonas aeruginosa, UniProt Q9I0K4); experiment: Inhibition of purified ICLPa enzymatic activity; type: biochemical; conditions: for inhibition at 75 µM: 75 µM compound, read-out: Enzyme Inhibition (%) at 75 µM ICLPa; for IC50: purified enzyme, 170 nM ICL
T2 construct: made in house
T2 sequence (Q9I0K4 1-531): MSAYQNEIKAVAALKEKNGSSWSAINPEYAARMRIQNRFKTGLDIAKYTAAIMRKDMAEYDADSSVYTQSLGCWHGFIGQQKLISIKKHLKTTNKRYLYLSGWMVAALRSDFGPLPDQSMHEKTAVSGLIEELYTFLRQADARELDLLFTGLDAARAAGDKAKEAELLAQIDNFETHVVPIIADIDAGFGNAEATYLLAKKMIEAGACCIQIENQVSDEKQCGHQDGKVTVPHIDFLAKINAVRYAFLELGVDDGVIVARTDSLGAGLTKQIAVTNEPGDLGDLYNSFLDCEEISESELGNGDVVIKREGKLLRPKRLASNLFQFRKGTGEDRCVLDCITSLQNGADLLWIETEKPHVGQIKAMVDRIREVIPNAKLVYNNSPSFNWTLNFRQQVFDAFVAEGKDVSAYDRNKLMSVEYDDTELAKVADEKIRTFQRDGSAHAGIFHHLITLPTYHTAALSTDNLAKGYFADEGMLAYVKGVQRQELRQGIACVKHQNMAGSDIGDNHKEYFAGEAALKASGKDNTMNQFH
Description: as §1, §2

[3] = Metabolic stability in human liver microsomes; type: in vitro ADME; conditions: HLM; for Clh, int (predicted hepatic clearance): scaled; for Clh (predicted in vivo hepatic clearance): well-stirred model; for half-life at 0.5 µM / microsomal CLint at 0.5 µM: human, pooled human liver microsomes, pH 7.4
Description: The metabolic stability of the test compounds was measured following incubation with liver microsomes from humans (BioIVT, lot no. IHG; West Sussex, UK) and rats (BD Gentest, lot no. 60614; BD Biosciences, Milan, Italy). Verapamil and dextromethorphan were used as positive controls. An automated incubation procedure was performed using the RSP Freedom Evo liquid dispensing and incubation system (TECAN, Milan, Italy). Five microliters of 50 µM test compound or positive control were added to 445 µL of microsomal suspension in 96 deep-well plates. The microsomal preparation comprised 0.56 mg/mL of pooled and homogenized liver microsomes suspended in 50 mM potassium phosphate buffer, pH 7.4. After 5 min at 37 °C, the reactions were initiated by adding 50 µL of prewarmed NADPH regenerating buffer to each sample. The regenerating buffer comprised a 2% NaHCO3 solution containing 1.7 mg NADP, 7.8 mg glucose-6-phosphate, and 6 units of glucose-6-phosphate dehydrogenase per mL. The samples were incubated at 37 °C, and 50 µL aliquots were withdrawn after 0, 3, 10, 15, 30, and 45 min and quenched in 150 µL acetonitrile. […] The analytical column was a Synergi “Max-RP” reverse phase C12 with TMS endcapping (30 mm × 2 mm, 4 µm particle size) (Phenomenex, Inc., Bologna, Italy). The column temperature was maintained at 60 °C. […] Analytes were quantified in multiple reaction-monitoring mode. Peak areas were integrated using Integrator Software from Agilent (Agilent Technologies, Milan, Italy) and were divided by the peak areas of the internal standard. The percentage of parent compound remaining was calculated by normalizing the peak area ratio of the parent compound to that of the internal standard at time 0. The half-lives of compound metabolism were derived from the linear portion of the slope of ln percent parent compound vs time. Intrinsic clearance in liver microsomes was estimated from: (1) Clint=k×(V/M) (2) Clh, int=(Clint (×1st Scaling factor)×2^ndScaling factor) (3) Clh=(Q×Clh, int)/(Q+Clh, int).
Here, k is the rate of depletion of the parent compound ([…]), V is the volume of the reaction mixture in mL, and M is the concentration of microsomal protein (in mg/mL). The amounts of protein in the incubations were scaled relative to the average liver- and body-mass of each species to obtain intrinsic hepatic clearance (Clh, int, in […]) (Table S3). These scaling factors were used along with the average hepatic blood flow (Q, in […]) of each species to obtain in vivo correlations (Clh, in mL/min/kg) using the well-stirred model.

[4] = CellTiter-Glo luminescent cell viability assay (ATP), H27; type: cell-based, human; conditions: human; H27 cells, 48 h, ATP luminescence; read-out: Cytotoxicity IC50 H27
Description: (§3) The number of viable cells based on ATP quantification was determined using the CellTiter-Glo® luminescent cell viability assay (Promega, Madison, WI, USA, lot no. 0000200446). Briefly, cells were seeded into white, flat-bottomed, sterile 96-well plates (PerkinElmer, Beaconsfield, UK) and incubated for 24 h. For A-375 cells, we used 10,000 cells/well, and for H27 cells, we used 7500 cells/well. Test compounds were diluted in assay medium (Glutamax DMEM with 5% FBS (Gibco)) and added to the plates in two-fold dilutions starting at 100 µM. Negative controls (0.5% DMSO) and positive controls (camptothecin, 1.6 µM for the A-375 cells and 50 µM for the H27 cells) were also included, and the plates were incubated for an additional 48 h (95% humidity, 5% CO2 at 37 °C). After incubation, the cells were washed with PBS. To each well, we then added 50 µL of assay medium plus 50 µL of CellTiter-Glo® reagent. The samples were then shaken for 2 min at 100 rpm at 25 °C, followed by a further 10 min at 25 °C to stabilize the luminescence signal. Luminescence was measured using a VarioSkan LUX multimode microplate reader (Thermo Fisher Scientific, Vantaa, Finland).

[5] = tested on: H27 cells; experiment: as above; type: cell-based, human; conditions: IC50 cytotoxicity/IC50 P. aeruginosa growth inhibition in M9 acetate
Description: as §3

SMILES	IC50 [1] [µM]	inhibition at 75 µM ([1]; 75 µM compound) [%]	inhibition at 75 µM [2] [%]	IC50 [2] [µM]	Clh, int (predicted hepatic clearance) [3] [mL/min/kg]	Clh (predicted in vivo hepatic clearance) [3] [mL/min/kg]	half-life at 0.5 µM [3] [h]	microsomal CLint at 0.5 µM [3] [µL/min/mg]	Enzyme Inhibition (%) at 75 µM MSPa ([1]; 75 µM compound) [%]	IC50 at 48 h [4] [µM]	Therapeutic index H27 [5]	T1/2 [3] [h]
Nc1cc(Cl)ccn1 [Compound 2-AP, 2-amino-4-chloropyridine, reference compound]	> 75	18.2	21	> 75	34.33	12.91	0.911	25.4				
CC(C)(C)OC(=O)/N=C(\NC(=O)OC(C)(C)C)Nc1cc(Cl)ccn1 [SB002]	4.5	> 90	100	13.3	23.31	10.96	1.35	17.3	94.5	98.4	93 and 93.73	1.342
CC(C)(C)OC(=O)/N=C(\NC(=O)OC(C)(C)C)Nc1cc(C#N)ccn1 [SB023]	14.5	90.4	34.7	92.5	25.75	11.48	1.2	19.1		205	23.27	1.214
